Data on ten compounds can be found in ChEMBL document CHEMBL1201862, “PubChem BioAssay data set” (2004).

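Method: 48-hour compound exposure of cells in 96-well plates, five concentrations, linear interpolation of endpoints. GI50 is the concentration that inhibits growth by half.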 Calls of active or inactive are those of the source. No stated cut-off is given here; in the data, active = GI50 up to about 1.1 µM and inactive = higher. Residues, ends and D or L forms follow the SMILES beside them. *: point of attachment. Pentanoyl = CCCCC(=O)*; Boc = CC(C)(C)OC(=O)*

Test systems include HCC 2998; HT-29; SF-295; NCI-H23; HOP-92; TK-10; KM12; Hs-578T; OVCAR-3; NCI-H522; SF-268; PC-3; 786-0; NCI/ADR-RES; RPMI-8226; SK-OV-3; SK-MEL-28; UO-31; UACC-62.
Test in all cases: DTP human tumour cell line panel, 48 h

As usually defined, the GI50 is the concentration at which growth is held to half of that of the control. With `COC(=O)n1c(=O)nc2c3c(ncn21)Oc1c(c(-c2ccccc2)nn1-c1ccccc1)C3c1ccc(Cl)cc1` (stereo unspecified), the GI50 is 1.42 µM (inactive) in the assay with HCC 2998; 1.56 µM (inactive) in the assay with HT-29; 1.67 µM (inactive) with SF-295; 2.03 µM (inactive) in the assay on NCI-H23; 1.71 µM (inactive) in the assay on HOP-92; 1.79 µM (inactive) in the assay with TK-10. Also, the GI50 in the assay on KM12 was 1.37 µM (inactive); in the assay with Hs-578T, 1.17 µM (inactive); in the assay on OVCAR-3 it was 1.42 µM (inactive); in the assay with NCI-H522, 1.5 µM (inactive); in the assay with SF-268 it was 1.3 µM (inactive); in the assay on PC-3 it was 1.59 µM (inactive). Also, the GI50 in the assay with 786-0 is 1.49 µM (inactive); with NCI/ADR-RES it was 1.46 µM (inactive); with RPMI-8226 it was 2.1 µM (inactive); in the assay with SK-OV-3, 3.29 µM (inactive); with SK-MEL-28, 1.79 µM (inactive); with UO-31, 1.68 µM (inactive). The GI50 with UACC-62 is 1.95 µM (inactive).
For `CC(C)(C)OCC1NC(=O)[C@@H]2Cc3c([nH]c4ccccc34)C(c3ccccc3)N2C1=O` (stereo partly specified), the GI50 in the assay with HCC 2998, in the assay with HT-29, in the assay on SF-295, in the assay on NCI-H23, in the assay with HOP-92 and in the assay on TK-10 was > 50 µM (inactive) throughout. The GI50 in the assay on KM12, with Hs-578T, with OVCAR-3, in the assay on NCI-H522, in the assay on SF-268 and in the assay on PC-3 was > 50 µM (inactive) throughout. The GI50 in the assay with 786-0 is > 50 µM (inactive); in the assay on NCI/ADR-RES, > 50 µM (inactive); with RPMI-8226, > 21.6 µM (inactive); in the assay with SK-OV-3, > 50 µM (inactive); in the assay with SK-MEL-28 it was > 50 µM (inactive); in the assay with UO-31, > 50 µM (inactive). Also, in the assay with UACC-62, the GI50 was > 50 µM (inactive).
Turning to `NC(CCC(=O)O)C(=O)N1CCN(c2nc(N3CCCC3)c3nc(Cl)c(NCc4ccccc4)nc3n2)CC1` (stereo unspecified), the GI50 was 11.4 µM (inactive) in the assay with HCC 2998; 9.95 µM (inactive) with HT-29; 11.6 µM (inactive) in the assay with SF-295; 15.4 µM (inactive) in the assay with NCI-H23; 15.8 µM (inactive) in the assay with HOP-92; 17.1 µM (inactive) with TK-10. The GI50 with KM12 was 16.1 µM (inactive); in the assay with Hs-578T, 20 µM (inactive); with OVCAR-3, 8.71 µM (inactive); in the assay with NCI-H522, 14.8 µM (inactive); in the assay on SF-268, 13.1 µM (inactive); in the assay with PC-3, 13.3 µM (inactive). The GI50 was 12.1 µM (inactive) with 786-0; 20.8 µM (inactive) in the assay on NCI/ADR-RES; 5.79 µM (inactive) with RPMI-8226; 18 µM (inactive) in the assay on SK-OV-3; 9.48 µM (inactive) with SK-MEL-28; 9.29 µM (inactive) with UO-31. Further, the GI50 in the assay on UACC-62 was 11.2 µM (inactive).
Turning to `Cc1nc(C)c(N2CCN(C(=O)O)CC2)c(O)n1`, the GI50 in the assay with HCC 2998, with HT-29, in the assay with SF-295, in the assay on NCI-H23, in the assay with HOP-92 and in the assay on TK-10 was > 100 µM (inactive) throughout. In addition, the GI50 with KM12, in the assay with Hs-578T, in the assay on OVCAR-3, in the assay with NCI-H522, with SF-268 and in the assay with PC-3 was > 100 µM (inactive) throughout. Further, the GI50 with 786-0, in the assay on NCI/ADR-RES, with RPMI-8226, in the assay with SK-OV-3, in the assay on SK-MEL-28 and in the assay with UO-31 was > 100 µM (inactive) each time. Besides, the GI50 in the assay with UACC-62 was > 100 µM (inactive).
On to `CCCCC(=O)Oc1ccc(CC(NC(=O)OC(C)(C)C)C(=O)NC(C)C(=O)NC(Cc2ccccc2)C(=O)NCC(N)=O)cc1` (stereo unspecified) (Boc-Y(Pentanoyl)AFG-NH2; configuration not given here), for which the GI50 in the assay with HCC 2998 is 20.6 µM (inactive); in the assay with HT-29, 19.4 µM (inactive); in the assay with SF-295, 63.8 µM (inactive); with NCI-H23 it was 41 µM (inactive); in the assay on HOP-92, 16.2 µM (inactive); in the assay with TK-10 it was > 100 µM (inactive). Further, the GI50 is 23.7 µM (inactive) in the assay on KM12; 34.6 µM (inactive) in the assay with Hs-578T; 20.4 µM (inactive) with OVCAR-3; 18.8 µM (inactive) with NCI-H522; 31.6 µM (inactive) with SF-268; 43.9 µM (inactive) in the assay on PC-3. In addition, the GI50 in the assay on 786-0 was 43.6 µM (inactive); in the assay with NCI/ADR-RES it was > 100 µM (inactive); in the assay with RPMI-8226 it was 21.2 µM (inactive); in the assay on SK-OV-3, 32.6 µM (inactive); in the assay on SK-MEL-28, 27.3 µM (inactive); with UO-31, > 100 µM (inactive). Moreover, the GI50 with UACC-62 is 20.5 µM (inactive).
For the compound `Oc1ccc(Cl)cc1CN1CCN(Cc2cc(Cl)ccc2O)C1`, the 50% growth inhibitory concentration (GI50) in the assay with HCC 2998 was 1.03 µM (active); in the assay on HT-29, 1.87 µM (inactive); with SF-295, 0.682 µM (active); with NCI-H23, 1.19 µM (inactive); in the assay with HOP-92, 1.15 µM (inactive); with TK-10, 1.55 µM (inactive). The GI50 in the assay with KM12 was 1.08 µM (active); in the assay on Hs-578T, 3.82 µM (inactive); in the assay with OVCAR-3 it was 0.367 µM (active); with NCI-H522, 3.31 µM (inactive); with SF-268 it was 1.09 µM (active); with PC-3, 0.206 µM (active). In addition, the GI50 in the assay on 786-0 was 0.203 µM (active); in the assay on NCI/ADR-RES it was 0.152 µM (active); in the assay on RPMI-8226 it was 2.27 µM (inactive); in the assay on SK-OV-3, 2.3 µM (inactive); in the assay on SK-MEL-28, 1.65 µM (inactive); with UO-31, 0.536 µM (active). The GI50 in the assay with UACC-62 is 1.85 µM (inactive).
For `O=C(O)c1ccccc1CC(Cc1ccccc1)C(=O)O` (stereo unspecified), the GI50 with HCC 2998, in the assay on HT-29, in the assay with SF-295, in the assay on NCI-H23, with HOP-92 and with TK-10 was > 100 µM (inactive) throughout. Also, the GI50 is > 100 µM (inactive) in the assay on KM12; > 100 µM (inactive) in the assay on Hs-578T; > 100 µM (inactive) in the assay on OVCAR-3; > 100 µM (inactive) in the assay with NCI-H522; 97.1 µM (inactive) with SF-268; > 100 µM (inactive) with PC-3. Further, the GI50 with 786-0, with NCI/ADR-RES, in the assay with RPMI-8226, with SK-OV-3, in the assay with SK-MEL-28 and with UO-31 was > 100 µM (inactive) throughout.
`CO/N=C(\C(=O)Nc1cncs1)c1csc(NC(c2ccccc2)(c2ccccc2)c2ccccc2)n1`: the GI50 is 8.53 µM (inactive) in the assay with HCC 2998; 4.63 µM (inactive) in the assay on HT-29; 7.21 µM (inactive) with SF-295; > 10 µM (inactive) in the assay on NCI-H23; > 10 µM (inactive) with HOP-92; > 10 µM (inactive) in the assay on TK-10. The GI50 is 9.4 µM (inactive) in the assay with KM12; > 10 µM (inactive) with Hs-578T; > 10 µM (inactive) in the assay on OVCAR-3; > 10 µM (inactive) with NCI-H522; 9.79 µM (inactive) with SF-268; 4.38 µM (inactive) in the assay with PC-3. Also, the GI50 was > 10 µM (inactive) in the assay on 786-0; > 10 µM (inactive) in the assay on NCI/ADR-RES; 4.52 µM (inactive) with RPMI-8226; > 10 µM (inactive) with SK-OV-3; > 10 µM (inactive) in the assay on SK-MEL-28; 4.37 µM (inactive) with UO-31.
Take `CCC(NC1=NCCO1)c1cccs1` (stereo unspecified): the GI50 in the assay on HCC 2998 was 15.5 µM (inactive); in the assay with HT-29, 19.7 µM (inactive); with SF-295 it was 15.1 µM (inactive); in the assay with NCI-H23, 16.9 µM (inactive); in the assay on HOP-92, 17.4 µM (inactive); in the assay with TK-10, 15.8 µM (inactive). For the same compound, the GI50 was 18 µM (inactive) with KM12; 11.2 µM (inactive) in the assay on Hs-578T; 16.9 µM (inactive) with OVCAR-3; 19.5 µM (inactive) with NCI-H522; 13.4 µM (inactive) in the assay on PC-3; 15.3 µM (inactive) in the assay with 786-0. The GI50 in the assay with NCI/ADR-RES was 43.1 µM (inactive); in the assay with RPMI-8226, 25.1 µM (inactive); with SK-OV-3 it was 13.8 µM (inactive); in the assay with SK-MEL-28, 15.6 µM (inactive); with UO-31 it was 18.7 µM (inactive); with UACC-62, 16 µM (inactive).
For `CC1(C)CC[C@]2(C(=O)O)[C@H](O)C[C@]3(C)C(=CC[C@@H]4[C@@]5(C)CC[C@H](OC6OC(C(=O)O)C(O)C(O)C6O)C(C)(C)[C@@H]5CC[C@]43C)[C@@H]2C1` (stereo partly specified), the GI50 is 27.2 µM (inactive) in the assay on HCC 2998; > 100 µM (inactive) in the assay with HT-29; 46.1 µM (inactive) in the assay with SF-295; > 100 µM (inactive) in the assay with NCI-H23; 20.3 µM (inactive) in the assay with HOP-92; 56.2 µM (inactive) in the assay with KM12. Besides, the GI50 in the assay with Hs-578T was 28.2 µM (inactive); with OVCAR-3, > 100 µM (inactive); in the assay with NCI-H522 it was > 100 µM (inactive); in the assay with SF-268, 88.5 µM (inactive); in the assay with PC-3, > 100 µM (inactive); in the assay with 786-0 it was > 100 µM (inactive). In addition, the GI50 was > 100 µM (inactive) with NCI/ADR-RES; > 100 µM (inactive) with RPMI-8226; > 100 µM (inactive) in the assay on SK-OV-3; 18.3 µM (inactive) in the assay with SK-MEL-28; 17.4 µM (inactive) with UO-31; 23.6 µM (inactive) with UACC-62.
